Data as given in PubChem BioAssay AID248 (DTP/NCI, 2004).
Several values for one entry are separate records, joined by “and”; a condition that tells them apart may be missing. Identical values can stand only once. Toxic doses and inconclusive results are not listed. Rule as the data show it: active = T/C of 150% or more; inactive = T/C below 125%.

System: L1210 leukemia ip in BDF1 mice, survival T/C
Test: NCI In Vivo Anticancer Drug Screen. Data for tumor model L1210 Leukemia (intraperitoneal) in B6D2F1 (BDF1) mice
Conditions: endpoint: mean survival time, higher = longer survival
Method in brief: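 Each compound was tested against a transplantable tumor grown in mice. The endpoint was survival, with treated animals benchmarked against vehicle controls as a simple ratio.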

[1] = dose: 50.0 mg/kg/injection, schedule: Q01DX009 (ip), vehicle: saline with Tween-80
[2] = dose: 100.0 mg/kg/injection, schedule: Q01DX009 (ip), vehicle: saline with Tween-80
[3] = dose: 200.0 mg/kg/injection, schedule: Q01DX009 (ip), vehicle: saline with Tween-80
[4] = dose: 100.0 mg/kg/injection, schedule: Q04DX003 (ip), vehicle: saline with Tween-80
[5] = dose: 200.0 mg/kg/injection, schedule: Q04DX003 (ip), vehicle: saline with Tween-80
[6] = dose: 400.0 mg/kg/injection, schedule: Q01DX009 (ip), vehicle: saline with Tween-80
[7] = dose: 400.0 mg/kg/injection, schedule: Q04DX003 (ip), vehicle: saline with Tween-80
[8] = dose: 12.5 mg/kg/injection, schedule: Q01DX009 (ip), vehicle: saline with Tween-80
[9] = dose: 25.0 mg/kg/injection, schedule: Q01DX009 (ip), vehicle: saline with Tween-80
[10] = dose: 25.0 mg/kg/injection, schedule: Q04DX003 (ip), vehicle: saline with Tween-80
[11] = dose: 50.0 mg/kg/injection, schedule: Q04DX003 (ip), vehicle: saline with Tween-80
[12] = dose: 100.0 mg/kg/injection, schedule: Q01DX001 (ip), vehicle: saline
[13] = dose: 200.0 mg/kg/injection, schedule: Q01DX001 (ip), vehicle: saline
[14] = dose: 400.0 mg/kg/injection, schedule: Q01DX001 (ip), vehicle: saline
[15] = dose: 25.0 mg/kg/injection, schedule: Q04DX002 (ip), vehicle: Klucel (hydroxypropylcellulose) (HPC)
[16] = dose: 50.0 mg/kg/injection, schedule: Q04DX002 (ip), vehicle: Klucel (hydroxypropylcellulose) (HPC)
[17] = dose: 100.0 mg/kg/injection, schedule: Q04DX002 (ip), vehicle: Klucel (hydroxypropylcellulose) (HPC)
[18] = dose: 100.0 mg/kg/injection, schedule: Q01DX009 (ip), vehicle: Klucel (hydroxypropylcellulose) (HPC)
[19] = dose: 200.0 mg/kg/injection, schedule: Q01DX009 (ip), vehicle: Klucel (hydroxypropylcellulose) (HPC)
[20] = dose: 400.0 mg/kg/injection, schedule: Q01DX009 (ip), vehicle: Klucel (hydroxypropylcellulose) (HPC)
[21] = dose: 100.0 mg/kg/injection, schedule: Q04DX003 (ip), vehicle: Klucel (hydroxypropylcellulose) (HPC)
[22] = dose: 200.0 mg/kg/injection, schedule: Q04DX003 (ip), vehicle: Klucel (hydroxypropylcellulose) (HPC)
[23] = dose: 400.0 mg/kg/injection, schedule: Q04DX003 (ip), vehicle: Klucel (hydroxypropylcellulose) (HPC)
[24] = dose: 50.0 mg/kg/injection, schedule: Q01DX001 (ip), vehicle: carboxymethylcellulose (CMC)
[25] = dose: 100.0 mg/kg/injection, schedule: Q01DX001 (ip), vehicle: carboxymethylcellulose (CMC)
[26] = dose: 200.0 mg/kg/injection, schedule: Q01DX001 (ip), vehicle: carboxymethylcellulose (CMC)
[27] = dose: 400.0 mg/kg/injection, schedule: Q01DX001 (ip), vehicle: carboxymethylcellulose (CMC)

Measured: T/C

CC(C)Cc1ccc(C[N+]23CN4CN(CN(C4)C2)C3)cc1
inactive: dose: 75.0 mg/kg/injection, schedule: Q01DX001 (ip), vehicle: saline 100 % of control | dose: 150.0 mg/kg/injection, schedule: Q01DX001 (ip), vehicle: saline 96 % of control | dose: 300.0 mg/kg/injection, schedule: Q01DX001 (ip), vehicle: saline 102 % of control

C=C=CC1CCCC1C (stereo unspecified)
inactive: [1] 110 % of control | [2] 106 % of control | [3] 92 % of control

O=C1Cc2ccccc21
inactive: [2] 97 % of control | [4] 95 % of control | [3] 97 % of control | [5] 94 % of control | [6] 96 % of control | [7] 98 % of control

OC1CC[N-]CC1.OC1CC[N-]CC1.[Cl][Pt+2]([Cl])([Cl])[Cl]
inactive: [8] 100 % of control | [9] 103 % of control | [10] 100 % of control | [1] 92 % of control | [11] 107 % of control | [4] 112 % of control and 119 % of control

CC1C2CC3C(OC(=O)C13C)C2I (stereo unspecified)
inactive: [12] 110 % of control | [13] 96 % of control | [14] 113 % of control

Cc1ccc(NCC(=O)NN)cc1F
inactive: [15] 102 % of control | [16] 109 % of control | [17] 109 % of control and 112 % of control

Cc1ccc([N+](=O)[O-])cc1NC(=O)Nc1cccc(O)c1
inactive: [18] 95 % of control | [19] 86 % of control | [20] 93 % of control

CN(C)c1ccc2c(c1)Cc1cc(N3C(=O)C=CC3=O)ccc1-2
inactive: [21] 101 % of control | [22] 101 % of control | [23] 95 % of control

COc1cc(CC(C(=O)OC(C)(C)C)C(=O)OC(C)(C)C)cc(OC)c1OC
inactive: [24] 101 % of control | [25] 97 % of control | [26] 97 % of control | [27] 109 % of control

CC(C)=CCNc1ncnc2c1nnn2C1OC(CO)C(O)C1O (stereo unspecified)
inactive: dose: 100.0 mg/kg/injection, schedule: Q01DX001 (ip), vehicle: water 105 % of control | dose: 200.0 mg/kg/injection, schedule: Q01DX001 (ip), vehicle: water 101 % of control | dose: 400.0 mg/kg/injection, schedule: Q01DX001 (ip), vehicle: water 101 % of control

Cc1ccc(NC(=O)Oc2ccc(OC(=O)Cc3ccccc3)cc2)cc1NC(=O)Oc1ccc(OC(=O)Cc2ccccc2)cc1
inactive: dose: 100.0 mg/kg/injection, schedule: Q01DX009 (ip), vehicle: other 96 % of control | dose: 200.0 mg/kg/injection, schedule: Q01DX009 (ip), vehicle: other 98 % of control | dose: 400.0 mg/kg/injection, schedule: Q01DX009 (ip), vehicle: other 93 % of control

O=C(O)CC(Br)C(=O)c1ccccc1 (stereo unspecified)
inactive: [8] 91 % of control | dose: 12.5 mg/kg/injection, schedule: Q04DX003 (ip), vehicle: saline with Tween-80 96 % of control | [9] 95 % of control | [10] 96 % of control | [1] 95 % of control | [11] 104 % of control

O=S(=O)(/N=C1C=C(N2CCOCC2)/C(=N/S(=O)(=O)c2ccccc2)C=C/1N1CCOCC1)c1ccccc1
inactive: dose: 75.0 mg/kg/injection, schedule: Q04DX003 (ip), vehicle: Klucel (hydroxypropylcellulose) (HPC) 97 % of control | dose: 150.0 mg/kg/injection, schedule: Q04DX003 (ip), vehicle: Klucel (hydroxypropylcellulose) (HPC) 89 % of control | dose: 300.0 mg/kg/injection, schedule: Q04DX003 (ip), vehicle: Klucel (hydroxypropylcellulose) (HPC) 100 % of control

CNCCNC
inactive: [12] 94 % of control | dose: 100.0 mg/kg/injection, schedule: Q04DX002 (ip), vehicle: saline 103 % of control | [13] 102 % of control | dose: 200.0 mg/kg/injection, schedule: Q04DX002 (ip), vehicle: saline 103 % of control | [14] 96 % of control | dose: 400.0 mg/kg/injection, schedule: Q04DX002 (ip), vehicle: saline 90 % of control

Cc1ccc(S(=O)(=O)Nc2cccc3cnccc23)cc1
inactive: [24] 96 % of control | [25] 105 % of control | [26] 102 % of control | [27] 105 % of control

N#Cc1ccncc1
inactive: [18] 91 % of control | [19] 93 % of control | [20] 96 % of control

O=c1cnc2ccc3ccccc3c2[nH]1
inactive: [15] 97 % of control | [16] 93 % of control | [17] 90 % of control

O=C(Nc1cccc(C2=NCCN2)c1)c1ccc(-c2ccc(C(=O)Nc3cccc(C4=NCCN4)c3)cc2)cc1
inactive: dose: 50.0 mg/kg/injection, schedule: Q01DX Z (ip), vehicle: carboxymethylcellulose (CMC) 101 % of control | dose: 65.0 mg/kg/injection, schedule: Q01DX Z (ip), vehicle: methylcellulose (MC) 121 % of control | dose: 100.0 mg/kg/injection, schedule: Q01DX Z (ip), vehicle: carboxymethylcellulose (CMC) 120 % of control | dose: 100.0 mg/kg/injection, schedule: Q01DX Z (ip), vehicle: methylcellulose (MC) 113 % of control | dose: 400.0 mg/kg/injection, schedule: Q01DX Z (ip), vehicle: carboxymethylcellulose (CMC) 117 % of control

O=C(O)C1C2C=CC(C2)C1c1ccccc1 (stereo unspecified)
inactive: [2] 101 % of control | [4] 97 % of control | [3] 97 % of control | [5] 93 % of control | [6] 98 % of control | [7] 114 % of control

O=C(Cc1cccc([N+](=O)[O-])c1)Nc1ccc(S(=O)(=O)F)cc1
inactive: [12] 112 % of control | [13] 111 % of control | [14] 110 % of control

CC(C)(C)c1ccc(-c2nnc(-c3ccc(-c4ccccc4)cc3)o2)cc1
inactive: [21] 95 % of control | [22] 92 % of control | [23] 90 % of control

Cc1nc2cc(N=Cc3ccc(N(CCCl)CCCl)cc3)ccc2n1C
inactive: dose: 68.8 mg/kg/injection, schedule: Q04DX002 (ip), vehicle: Klucel (hydroxypropylcellulose) (HPC) 104 % of control | dose: 137.5 mg/kg/injection, schedule: Q04DX002 (ip), vehicle: Klucel (hydroxypropylcellulose) (HPC) 104 % of control | dose: 275.0 mg/kg/injection, schedule: Q04DX002 (ip), vehicle: Klucel (hydroxypropylcellulose) (HPC) 104 % of control

ClCCN(CCCl)c1ccc(C=Nc2cc(Cl)ccc2-n2ccnc2)c(Cl)c1
inactive: [17] 98 % of control | dose: 200.0 mg/kg/injection, schedule: Q04DX002 (ip), vehicle: Klucel (hydroxypropylcellulose) (HPC) 95 % of control | dose: 400.0 mg/kg/injection, schedule: Q04DX002 (ip), vehicle: Klucel (hydroxypropylcellulose) (HPC) 98 % of control

CCCCCCCCCNC(=O)Nc1cccc(Cl)c1C
inactive: [2] 86 % of control | [4] 90 % of control | [3] 87 % of control | [5] 90 % of control | [7] 90 % of control

O=C(c1ccccc1)C1(c2ccccc2)SC1(C(=O)c1ccccc1)c1ccccc1 (stereo unspecified)
inactive: [4] 92 % of control | [5] 91 % of control | [7] 87 % of control
